pIC50: −log10 of the molar value. Where a name gives a salt, the structure may show the parent alone. Read-outs that look alike come from different tables or passages of the source.
Experiments:
[1] = test system: Huh7 cells expressing a subgenomic RNA replicon of Con1 (genotype 1b); assay: HCV replicon assay (luciferase, SteadyLite), Example 1; format: cell-based; conditions: single agent; for pIC50: read-out: IC50 (concentration required to achieve 50% inhibition of viral replication); for Emax: read-out: Max Eff (maximum effect, inhibition of viral replication)
Method: The HCV replicon assay enables screening of compounds with antiviral activity against HCV viral RNA replication. Huh7 cells expressing a subgenomic RNA replicon of Con1 (genotype 1b) sequence origin and expressing the reporter enzyme luciferase were obtained from ReBLikon, GmBH. In order to perform the assay, replicon cells were seeded on a 384-well plate at 4,000 cells/well in a total volume of 30 μL well. The plated cells were incubated at 37° C., 5% CO2. Pre-diluted compounds at a 10× concentration were added to each well to achieve the desired final concentration. Plates were centrifuged at 900×g, 1 minute following the addition of compounds. Cells were incubated an additional 48 hours or 72 hours at 37° C., 5% CO2. Plates were removed from the incubator 30 minutes to 1 hour prior to the addition of 25 μL/well of SteadyLite luciferase assay reagent from Perkin Elmer in order to equilibrate plates to room temperature. Following the addition of SteadyLite reagent, cells were allowed to incubate for 10 minutes prior to collecting data with a luminometer. Antiviral activity was quantified by the inhibition of luciferase activity.
For screens involving a combination of compounds, a synergy score was calculated by the formula S=log fX log fYΣIdata(Idata−/ILoewe), summed over all non-single-agent concentration pairs, and where log fX,Y are the natural logarithm of the dilution factors used for each single agent. This effectively calculates a volume between the measured and Loewe additive response surfaces, weighted towards high inhibition and corrected for varying dilution factors. […] In general, the magnitude of the synergy score indicates the strength of the synergistic interaction.

Huh7 parental cell line = assay: Host proliferation counterscreen measuring cellular ATP levels (ATPLite); format: cell-based, human
Method: (§1) The human hepatoma cell line Huh-7^1 and Huh-luc/neo-ET cells (ReBLikon, GmbH) were maintained in Dulbecco's modified Eagle's medium (DMEM; Gibco Invitrogen) supplemented with 10% Fetal Bovine Serum (FBS, Gibco Invitrogen),1% Penicillin/Streptomycin (Gibco Invitrogen), 1% Gluta MAX-1 (Gibco Invitrogen) and 1% Non-Essential Amino Acids Solution (Gibco Invitrogen) at 37° C., 5% CO2. Huh-luc/neo-ET cells were grown in medium additionally supplemented with 250 ug/ml Geneticin (G418, Gibco Invitrogen). These cells stably express an HCV genotype 1b subgenomic replicon encoding firefly (Photinus pyralis) luciferase, the coding sequence for ubiquitin and neomycin phosphotransferase downstream of the HCV IRES and upstream of an EMCV IRES which mediates translation of downstream viral nonstructural proteins NS3 to NS5B^2. For all experimental procedures Huh-luc/neo-ET and Huh-7 parental cells were seeded in DMEM without phenol red in the absence of G418 and Penicillin/Streptomycin (screening medium).
(§2) Cells were seeded in 30 μl of screening medium at 4000 cells/well on white (Huh-luc/neo-ET cells for viral inhibition assay) or black (Huh7 cells for proliferation inhibition assay) 384-well assay plates (Matrix) and incubated overnight for approximately 20 hours. Using a MiniTrak™ Robotic Liquid Handling System (Perkin-Elmer) 1 μl of compound stock solutions (1000× concentration in DMSO unless otherwise mentioned) in an X (2-fold dilutions of compound horizontally arrayed) or Y (2-fold dilutions of compound vertically arrayed) format was transferred from master plates into 384-well clear bottom plates containing 100 μl screening medium (dilution plates) and mixed thoroughly. From each X and Y dilution plate, 3.3 μl was subsequently transferred to the 384-well assay plates for a final compound dilution of 1:1000 generating a 9×9 (81-point) dose response matrix. The cells were then incubated for 48 hours prior to measuring luciferase activity (viral inhibition) or ATP depletion (proliferation inhibition). 25 μl of SteadyLite (Perkin-Elmer) was added to the white 384-well assay plates and 15 μl of ATPLite (Perkin-Elmer) was added to the black 384-well plates which were subsequently incubated at least 5 minutes before measuring the luminescent signal. All luminescence measurements were assayed for 0.1 sec per well with an EnVision™ Xcite multilabel automatic plate reader with Enhanced Luminescence (Perkin-Elmer) and expressed as the number of relative light units (RLU) detected. Compounds were assayed in duplicate 9×9 dose matrices on each plate and DMSO-only control wells were included as negative untreated controls.
(§3) The resulting impact on viral replication, as measured by replicon luciferase activity, is shown as dose response curves in FIG. 1a. A host proliferation counterscreen measuring cellular ATP levels was assessed in parallel using the Huh7 parental cell line and the data were used to evaluate the selectivity of each probe. All of the compounds tested produced either increases (proviral) or decreases (antiviral) in replicon replication.

[2] = test system: HCV genotype 1b subgenomic replicon; assay: cHTS luciferase assay (viral inhibition) in Huh-luc/neo-ET cells, Experiment 2; format: cell-based; conditions: single agent; for pIC50: Hepatitis C virus, Huh-luc/neo-ET, replicon luciferase activity, 48 hours, read-out: IC50, HCV replication
Method: as §1, §2
Dose matrices were assembled from replicate combination blocks on experimental 384-well pates. Raw phenotype measurements T from each treated well were converted to normalized measures of inhibitory activity a=−log10(TN) or fractional inhibition I=1−T/V relative to the median V of 20 vehicle-treated wells arranged around the plate. After normalization, we calculated average activity values between replicate measurements at the same treatment doses, along with σ1σ1, the accompanying standard error estimates. Single agent responses were tested at eleven serially-diluted doses and combination data as 9×9 dose matrices each testing all pairs of 8 serially-diluted single agent concentrations along with their single agent doses as a control.
as §3

HMGCR = HMGCR protein expression by western analysis in Huh7 cells; format: cell-based, human; conditions: Huh7 cells treated 16 hrs, GAPDH control
Method: For protein expression analysis, Huh-luc/neo-ET cells were seeded in 4 ml of medium at 250,000 cells per well on 6-well plates and allowed to adhere for 6-8 hours. Stock solutions of compound were added at a 1:1000 dilution and cells were incubated in the presence of compound over 96 hours. Medium and compounds were refreshed once after an initial incubation of 48 hours. Cells were washed in phosphate-buffered saline (PBS, Invitrogen-Gibco) and lysed by the addition of 1× RIPA lysis buffer (0.5 M Tris-HCl, pH 7.4/1.5 M NaCl/2.5% deoxycholic acid/10% NP-40/10 mM EDTA, purchased from Upstate) containing Complete, Mini Protease inhibitor cocktail and PhosSTOP phosphatase inhibitor cocktail tablets (Roche) according to the manufacturer's recommendations. Cell lysates were rocked for 30 minutes at 4° C. and centrifuged at 10,000×g for 10 minutes at 4° C. The protein concentration of each extract was determined by BCA protein assay (Pierce) according to the manufacturer's protocol. […]
To determine the effects of our chemical inhibitors on HMGCR expression, we treated Huh7 cells with the listed concentrations of each chemical for 16 hrs (FIG. 4b). Cell lysates were extracted according to the methods and HMGCR protein expression was analyzed by SDS-PAGE separation and western staining with antibodies specific for HMGCR and GAPDH.

HCV RNA = HCV RNA copy number by RT-qPCR in Huh-luc/neo-ET cells; format: cell-based; conditions: 72 hr treatment
Method: Measurement of HCV RNA levels in response to drug were carried out by first seeding Huh-luc/neo-ET cells in 100 μl of medium at 7,500 cells per well for 72 hour drug treatments and allowed to adhere overnight for approximately 20 hours. Compounds were added at a 1:1000 dilution in duplicate and added to cells in 3 separate experiments. Total RNA was harvested using an RNeasy 96-well kit (Qiagen) according to the manufacturer's protocol and quantified using the Quant-iT™ RiboGreen® RNA Reagent (Invitrogen). Purified RNA (4 μl) was added to TaqMan reactions containing 10 μl of QuantiTect Probe RT-PCR Master Mix (Qiagen) and 0.2 μL, of QuantiTect RT Mix. […] All 20 μl reactions were assayed in an Eppy Twin-Tec skirted PCR plate (Eppendorf) and subjected to quantitative one-step RT-PCR with an Eppendorf Realplex4 qPCR machine (Eppendorf) using the following program: 50° C. for 30 min, 95° C. for 15 min, and 40 cycles of 95° C. for 15 s followed by 60° C. for 1 min 15 s. Absolute quantification of HCV RNA copy number was determined by comparing PCR signals to a standard curve generated from dilutions of a 160 by PCR-amplified fragment of the 5′NTR of HCV. […] All qPCR samples quantified by comparison to the standard curve were subsequently normalized to total RNA per sample to account for variations in sample purification and preparation steps. […]

[3] = single agent, Huh7 parental cells

`O=C([O-])C[C@H](O)C[C@H](O)/C=C/c1c(C2CC2)nc2ccccc2c1-c1ccc(F)cc1.O=C([O-])C[C@H](O)C[C@H](O)/C=C/c1c(C2CC2)nc2ccccc2c1-c1ccc(F)cc1.[Ca+2]` [Itavastatin, calcium salt, Itavastatin] was tested, and the “Max Eff (maximum effect, inhibition of viral replication)” value [1] was 92 and the pIC50 [1] was 5.64.
`O=C(c1ccc(Cl)cc1)N1CCC(=Cc2ccc(C3=NCCO3)cc2)CC1` [BIBB-515] showed an Emax ([1]; Hepatitis C virus, Huh-7) of 46%.
`CCCCCCCCCCCCCCOc1ccc(C(=O)O)o1` [TOFA, 5-(tetradecyloxy)-2-furancarboxylic acid] showed a pIC50 ([1]; Hepatitis C virus, Huh-7) of 5.20 and an Emax ([1]; Hepatitis C virus, Huh-7) of 95%.
`C[C@@H](Cc1ccc(C(C)(C)C)cc1)CN1C[C@@H](C)O[C@@H](C)C1` [fenpropimorph, Fenpropimorph] was tested, and the “impact on host cell ATP levels” value (Huh7 parental cell line) was “marginal impact” and the “HCV replication (replicon luciferase activity), result in words” value (“HCV replication” for short) [2] was “inhibited HCV replication”.
With `CCN(CC)CCOc1ccc(C(O)(Cc2ccc(Cl)cc2)c2ccc(C)cc2)cc1` (stereo not drawn) [Triparanol] the pIC50 ([1]; Hepatitis C virus, Huh-7) was 5.81 and the Emax ([1]; Hepatitis C virus, Huh-7) was 87%.
`CC(C)n1c(/C=C/C(O)CC(O)CC(=O)O)c(-c2ccc(F)cc2)c2ccccc21` (stereo not drawn) [Fluvastatin] gave a pIC50 ([1]; Hepatitis C virus, Huh-7) of 4.80 and an Emax ([1]; Hepatitis C virus, Huh-7) of 65%.
For `CC(C)CCCC(C)[C@H]1CC(=O)C2=C3CC[C@H]4C[C@@H](O)CC[C@]4(C)C3CC[C@@]21C` (stereo partly drawn) [Colestolone], the pIC50 ([1]; Hepatitis C virus, Huh-7) was 5.79, the Emax ([1]; Hepatitis C virus, Huh-7) was 79% and the “impact on host cell ATP levels” value (Huh7 parental cell line; [3]) was “marginal impact”. For the same compound, the “HCV replication” value [2] was “inhibited HCV replication”.
For `C=CCN(C)CCCCCCOc1ccc(C(=O)c2ccc(Br)cc2)c(F)c1` [Ro 48-8071], the HMGCR protein expression (HMGCR) was “apparent overexpression”, the pIC50 ([1]; Hepatitis C virus, Huh-7) was 7.22 and the Emax ([1]; Hepatitis C virus, Huh-7) was 66%. The “impact on host cell ATP levels” value (Huh7 parental cell line; [3]) was “marginal impact”, the pIC50 [2] was 7.17 and the “HCV replication” value [2] was “inhibited HCV replication”.
In the case of `CCOP(=O)(OCC)C(=Cc1cc(C(C)(C)C)c(O)c(C(C)(C)C)c1)P(=O)(OCC)OCC` [SR 12813], the “Max Eff (maximum effect, inhibition of viral replication)” value [1] was 47.
In the case of `CCCCCCC(=O)CCCCCC/C=C/C[C@@H](O)[C@H](O)[C@@](N)(CO)C(=O)O` [Myriocin], the Emax ([1]; Hepatitis C virus, Huh-7) was 33%.
`COC(=O)[C@H](CC(C)C)NC(=O)c1ccc(NC[C@@H](N)CS)cc1-c1ccccc1` [GGTI-286] showed a pIC50 ([1]; Hepatitis C virus, Huh-7) of 5.43 and an Emax ([1]; Hepatitis C virus, Huh-7) of 79%.
For `C=C(CC[C@]12O[C@H](C(=O)O)[C@@](O)(C(=O)O)[C@](C(=O)O)(O1)[C@H](OC(=O)/C=C/[C@@H](C)C[C@@H](C)CC)[C@H]2O)[C@@H](OC(C)=O)[C@H](C)Cc1ccccc1` [Squalestatin], the “effect on HCV RNA replication (viral RNA copy number normalized to total RNA)” value (HCV RNA) was “proviral effects”.
Terconazole was tested, and the “Max Eff (maximum effect, inhibition of viral replication)” value [1] was 95 and the pIC50 [1] was 5.78.
Work on `Clc1ccccc1CNC[C@H]1CC[C@H](CNCc2ccccc2Cl)CC1` [AY-9944] yielded a pIC50 ([1]; Hepatitis C virus, Huh-7) of 5.60 and an Emax ([1]; Hepatitis C virus, Huh-7) of 85%.
`CC[C@H](C)C(=O)O[C@H]1CCC=C2C=C[C@H](C)[C@H](CC[C@@H]3C[C@@H](O)CC(=O)O3)[C@H]21` [Mevastatin] showed a pIC50 ([1]; Hepatitis C virus, Huh-7) of 6.22 and an Emax ([1]; Hepatitis C virus, Huh-7) of 101%.
Work on `CC[C@H](C)C(=O)O[C@H]1C[C@@H](C)C=C2C=C[C@H](C)[C@H](CC[C@@H]3C[C@@H](O)CC(=O)O3)[C@H]21` [Lovastatin] yielded a pIC50 ([1]; Hepatitis C virus, Huh-7) of 5.79 and an Emax ([1]; Hepatitis C virus, Huh-7) of 102%.
In the case of `CCC(C)(C)c1ccc(CC(C)CN2C[C@@H](C)O[C@@H](C)C2)cc1` (stereo partly drawn) [Amorolfine hydrochloride, Amorolfine], the pIC50 ([1]; Hepatitis C virus, Huh-7) was 5.12 and the Emax ([1]; Hepatitis C virus, Huh-7) was 62%.
With `CCN(CC)CCO[C@H]1CC[C@@]2(C)C(=CC[C@@H]3[C@@H]2CC[C@]2(C)C(=O)CC[C@@H]32)C1` [U18666A] the HMGCR protein expression (HMGCR) was “apparent overexpression”, the “impact on host cell ATP levels” value (Huh7 parental cell line; [3]) was “marginal impact” and the pIC50 [2] was 7.71. The “HCV replication” value [2] was “inhibited HCV replication”.
In the case of `CCC(C)(C)c1ccc(CC(C)CN2C[C@@H](C)O[C@@H](C)C2)cc1` (stereo partly drawn) [amorolfine, Amorolfine], the “impact on host cell ATP levels” value (Huh7 parental cell line; [3]) was “marginal impact” and the “HCV replication” value [2] was “inhibited HCV replication”.
In the case of `CCN(CC)CCOc1ccc(/C(=C(\Cl)c2ccccc2)c2ccccc2)cc1` [Clomiphene citrate, Clomiphene], the Emax ([1]; Hepatitis C virus, Huh-7) was 86%.
Work on `CCC(C)(C)C(=O)O[C@H]1C[C@@H](C)C=C2C=C[C@H](C)[C@H](CC[C@@H]3C[C@@H](O)CC(=O)O3)[C@H]21` [Simvastatin] yielded a pIC50 ([1]; Hepatitis C virus, Huh-7) of 4.85 and an Emax ([1]; Hepatitis C virus, Huh-7) of 71%.
